# Reference: patent US6492365B1, “Microsomal triglyceride transfer protein” (Bristol-Myers Squibb Company, priority 1992, dated 2002)
# Structures can show the parent of a compound that is named as a salt.
# Columns and labels:
# [1] = target: T1, bovine MTP (Bos taurus, UniProt P55156); assay: MTP-catalyzed transport of 14C-CE from donor SUV to acceptor SUV; format: biochemical
# T1 construct: with about 50-200 ng purified MTP in the well of a 96-well plate; from tissue; host or cells: bovine liver
# T1 sequence (P55156 12-887): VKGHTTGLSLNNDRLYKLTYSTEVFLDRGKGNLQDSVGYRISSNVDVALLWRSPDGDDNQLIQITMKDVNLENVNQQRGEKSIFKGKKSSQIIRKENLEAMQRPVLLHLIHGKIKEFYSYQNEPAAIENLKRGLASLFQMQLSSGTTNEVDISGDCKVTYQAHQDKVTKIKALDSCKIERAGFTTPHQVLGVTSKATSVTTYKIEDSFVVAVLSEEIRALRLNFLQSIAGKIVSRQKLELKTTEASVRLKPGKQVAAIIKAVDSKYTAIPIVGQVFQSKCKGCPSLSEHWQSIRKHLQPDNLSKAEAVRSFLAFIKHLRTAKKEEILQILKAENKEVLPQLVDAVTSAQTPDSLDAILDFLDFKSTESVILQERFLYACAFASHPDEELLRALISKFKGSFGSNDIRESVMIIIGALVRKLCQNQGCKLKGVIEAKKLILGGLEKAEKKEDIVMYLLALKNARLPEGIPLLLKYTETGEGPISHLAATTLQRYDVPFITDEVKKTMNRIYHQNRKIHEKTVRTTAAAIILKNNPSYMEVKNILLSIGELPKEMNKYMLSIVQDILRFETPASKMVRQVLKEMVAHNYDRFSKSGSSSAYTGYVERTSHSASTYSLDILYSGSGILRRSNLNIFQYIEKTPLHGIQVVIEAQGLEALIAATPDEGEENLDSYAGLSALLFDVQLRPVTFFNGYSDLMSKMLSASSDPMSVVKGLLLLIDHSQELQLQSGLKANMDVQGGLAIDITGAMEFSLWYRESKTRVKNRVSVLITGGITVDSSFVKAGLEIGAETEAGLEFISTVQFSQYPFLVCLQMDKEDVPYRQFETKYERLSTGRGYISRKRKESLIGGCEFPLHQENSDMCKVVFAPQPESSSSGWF
# T1 sequence (P05307 21-510 partner): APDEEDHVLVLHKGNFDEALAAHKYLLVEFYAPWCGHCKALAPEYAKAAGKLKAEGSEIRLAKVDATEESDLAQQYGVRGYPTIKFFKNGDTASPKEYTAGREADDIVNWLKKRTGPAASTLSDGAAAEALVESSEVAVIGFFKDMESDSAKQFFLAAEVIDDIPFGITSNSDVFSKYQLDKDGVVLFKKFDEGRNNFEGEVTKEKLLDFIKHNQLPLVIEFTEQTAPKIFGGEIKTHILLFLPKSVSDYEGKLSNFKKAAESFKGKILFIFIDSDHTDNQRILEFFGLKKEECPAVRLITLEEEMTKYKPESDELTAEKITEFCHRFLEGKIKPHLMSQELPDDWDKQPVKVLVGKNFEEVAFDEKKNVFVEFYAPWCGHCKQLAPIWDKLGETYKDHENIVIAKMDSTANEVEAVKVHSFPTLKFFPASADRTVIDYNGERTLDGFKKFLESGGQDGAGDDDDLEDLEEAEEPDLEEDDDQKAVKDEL
# Procedure: (§1) To measure the effect of compound A on bovine MTP-catalyzed transport of CE or PC between membranes, the lipid transfer assay which measures TG transfer between SUV was modified. The composition of the donor vesicles was the same, except 0.25 mol% ^14C-CE or ^14C-PC replaced the labeled TG. The composition of the acceptor vesicles were the same, except labeled PC and unlabeled TG were not included. Following precipitation of donor vesicles, the percentage of lipid transfer was calculated by comparing the ^14C-CE or -PC in the acceptor vesicles in the supernatant following a transfer reaction to the total ^14C-CE or -PC in the assay. The labeled lipid in the supernatant in the absence of MTP was subtracted from the labeled lipid in the presence MTP to calculate the MTP-catalyzed lipid transfer from donor SUV to acceptor SUV. The remainder of the assay was essentially as described previously.
# [2] = target: T1, bovine MTP; assay: MTP-catalyzed transport of 14C-PC from donor SUV to acceptor SUV; format: biochemical; details: at concentrations of inhibitor which decreased TG and CE transfer more than 80%
# Procedure: as §1
structure (smiles),measurement,setting,value
"O=C1c2ccccc2CN1C1CCN(CCC(c2ccccc2)c2ccccc2)CC1 [compound A, 2-[1-(3,3-diphenylpropyl)-4-piperdinyl]-2,3-dihydro-3-oxo-1H-isoindole hydrochloride]",decrease of CE transfer,[1]; at concentrations that inhibited approximately 40% of PC transfer,more than 80%
same,inhibition of CE transfer,[1]; result in words,comparable to its inhibition of TG transfer
same,PC transfer inhibited,[2],Approximately 40%
